From patent publication US20190359645A1, “2'3'-CYCLIC DINUCLEOTIDES COMPRISING CARBOCYCLIC NUCLEOTIDE” (Institute of Organic Chemistry and Biochemistry ASCR, V.V.I., priority 2018, published 2019)

target: WT STING (Homo sapiens, UniProt Q86WV6, H232R); test: Differential scanning fluorimetry (DSF) with WT STING; type: binding; set-up: truncated human WT STING or AQ STING (amino acid residues 140-343); 8xHis (N, cleaved yes); SUMO (N, cleaved yes); made in house; host or cells: E. coli Rosetta-gami B (DE3); conditions: thermal shift, truncated human WT STING 0.1 mg/ml, 150 μM CDN; read-out: DSF ΔTm WT STING
Source text: Both WT and AQ human STING (G230A-R^293Q) cDNA were amplified by the use of PCR (Phusion® High-Fidelity DNA Polymerase, cat. # M0530S, NEB, Ipswich, USA) using oligonucleotides hSTING140-BamH-For ([…]) (SEQ ID NO:5) and hSTING379-Not-Rev3 ([…]) (SEQ ID NO:6) from pUNOI-hSTING-WT (cat. # punol-hstingwt, InvivoGen, San Diego, USA) and pUNO1-hSTING-HAQ plasmids (punol-hsting-haq, InvivoGen, San Diego, USA). Purified PCR products were cleaved with restriction enzymes BamHI (cat. # R^0136S, NEB, Ipswich, USA) and NotI (cat. # R^0189S, NEB, Ipswich, USA) and cloned into the pSUMO vector linearized with the identical enzymes. Plasmid pSUMO was created by introducing 8-His-SUMO sequence between NdeI and BamHI sites of pHis-parallel2 plasmid (Clontech, Moutain View, USA). pSUMO-STING WT or pSUMO-STING AQ plasmids thus encoded truncated human WT STING or AQ STING (amino acid residues 140-343) with N-terminal 8×His and SUMO tag.
The recombinant WT STING and AQ STING proteins were overexpressed in Rosetta-gami B (DE3) competent cells (cat. #71136-3, Merck Millipore, Billerica, USA). Bacterial pellets were re-suspended in ice-cold lysis buffer containing 50 mmol·l^−1 TrisCl (cat. # T1503, Sigma Aldrich, Czech Republic) pH 8.0, 300 mmol·l^−1 NaCl, 3 mmol·l^−1 (3-mercaptoethanol (cat. # M6250, Sigma Aldrich, Czech Republic), 10% glycerol (cat. #G5516, Sigma Aldrich, Czech Republic) and 20 mmol·l^−1 imidazole (cat. #15513, Sigma Aldrich, Czech Republic) using Dounce homogenizer. DNase I (cat. # D5025, Sigma Aldrich, Czech Republic) and RNase A (cat. # R^6513, Sigma Aldrich, Czech Republic) were added (final concentration 50 μg/ml) together with MgCl2 (final concentration 5 mmol·l^−1) to the homogenate and bacteria were lysed using French Press G-M™ High-Pressure Cell Press Homogenizer (1500 psi, 3 cycles). Lysate was spun 30,000 g for 20 minutes and supernatant was gently stirred with Ni-NTA resin (cat. #745400.25 Macherey-Nagel, Duren, Germany) for 30 minutes. The resin was poured into a chromatography column, washed with 50 ml buffer A (50 mmol·l^−1 TrisCl (pH 8.0), 800 mmol·l^−1 NaCl, 3 mmol·l^−1β-mercaptoethanol; 10% glycerol; 20 mmol·l^−1 imidazole) and 8-His-SUMO tagged STING proteins were eluted with 15 ml buffer A containing 300 mmol·l^−1 imidazole. The eluted proteins were cleaved with recombinant SUMO protease (80 pig/ml of protein solution, cat. #12588018, ThermoFisher, Waltham, USA). The proteins were further purified by size exclusion chromatography using HiLoad 16/60 Superdex 75 (cat. #28989333, GE Healthcare Bio-Sciences, Pittsburgh, USA) in 50 mmol·l^−1 Tris C1 buffer pH 7.4 containing 150 mmol·l^−1 NaCl, and 10% glycerol. Proteins were concentrated with Amicon® Ultra-15 10 K device (cat. # UFC901008, Merck Millipore, Billerica, USA) and flash frozen in liquid N2.
WT and AQ allelic forms of STING protein were diluted to the final concentration 0.1 mg/ml in 100 mmol·l^−1 TrisCl buffer pH 7.4 containing, 150 mmol·l^−1 NaCl, 1:500 SYPRO Orange (cat. # S6650, ThermoFisher, Waltham, USA) and 150 μM CDN or water. 20 μL solutions of the reaction mixtures were pipetted in triplicates into 96 well optical reaction plates and thermal denaturation of samples were performed on real time PCR cycler (LightCycler® 480 Instrument II—Roche, Basel, Switzerland). The first derivative of the thermal denaturation curves was performed to calculate denaturing temperatures of STING-CDN complexes and STING apoproteins. The thermal shift for each CDN was calculated by subtracting the average denaturing temperature of STING apoprotein from the average denaturing temperature of STING CDN complex.

WT STING, sequence (Q86WV6 140-343 H232R): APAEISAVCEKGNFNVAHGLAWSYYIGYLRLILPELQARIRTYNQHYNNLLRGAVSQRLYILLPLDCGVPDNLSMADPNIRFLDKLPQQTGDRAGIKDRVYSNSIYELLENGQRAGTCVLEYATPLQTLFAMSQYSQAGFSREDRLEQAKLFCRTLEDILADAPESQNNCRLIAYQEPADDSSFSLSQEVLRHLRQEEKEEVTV

Question: With CSc1ncnc2c1ncn2[C@@H]1O[C@@H]2COP(=O)(O)OC3C(O)[C@@H](COP(=O)(O)OC2C1O)C[C@H]3n1cnc2c(=O)[nH]cnc21 (stereo partly drawn) [Compound 125, (1S,6R,8R,9R,10S,15R,17R,18R)-3,9,12,18-tetrahydroxy-8-[16-(methylsulfanyl)-9H-purin-9-yl]-17-(6-oxo-6,9-dihydro-1H-purin-9-yl)-2,4,7,11,13-pentaoxa-3λ^5,12λ^5-diphosphatricyclo[13.2.1.0^6,10]octadecane-3,12-dione] as the compound, how does the ΔTm at 150 µM read?
Answer: The ΔTm at 150 µM was 4.2 °C.

Question: With Nc1ncnc2c1ncn2[C@@H]1O[C@@H]2COP(=O)(O)O[C@@H]3[C@@H](F)[C@@H](COP(=O)(O)O[C@H]2[C@H]1O)C[C@H]3n1cnc2c(=O)[nH]cnc21 [Compound 126, (1S,6R,8R,9R,10S,15R,17R,18S)-8-(6-amino-9H-purin-9-yl)-18-fluoro-3,9,12-trihydroxy-17-(6-oxo-6,9-dihydro-1H-purin-9-yl)-2,4,7,11,13-pentaoxa-3λ^5,12λ^5-diphosphatricyclo[13.2.1.0^6,10]octadecane-3,12-dione] as the compound, how does the ΔTm at 150 µM read?
Answer: The ΔTm at 150 µM was 8.4 °C.

Question: With Nc1ncnc2c1ncn2[C@@H]1O[C@@H]2COP(=O)(O)O[C@@H]3[C@H](F)[C@@H](COP(=O)(O)O[C@H]2[C@H]1F)C[C@H]3n1cnc2c(=O)[nH]cnc21 [Compound 127] as the compound, how does the ΔTm at 150 µM read?
Answer: Its ΔTm at 150 µM is 8.2 °C.
